Source: patent US20200278355A1, “CONJUGATED PROTEINS AND USES THEREOF” (THE SCRIPPS RESEARCH INSTITUTE, priority 2017, published 2020)

Biological target: T1, TXNDC12 (Homo sapiens, UniProt O95881)
T1 construct: endogenous in cells; host or cells: H460
Experiment: ABPP-SILAC BPK-29yne competition in H460 cells: TXNDC12
Assay type: cell-based
Conditions: 20 μM
Protocol: Isotopically labeled H460 cell lines were generated as described above. Light and heavy cells were treated with compounds (20 μM) or DMSO, respectively, for 3 h, followed by labeling with the BPK-29yne (5 μM) for 30 min. Cells were washed once ice-cold PBS and lysed in 1% Triton 100-X dissolved in PBS with protease inhibitors (Sigma) by sonication. Lysate was adjusted to 1.5 mg ml^−1 in 500 μL. Samples were conjugated by CuAAC to Biotin-PEG4-azide (5 μL of 10 mM stocks in DMSO, final concentration=100 μM). CuAAC “click” mix contained TCEP, TBTA ligand and CuSO4 as detailed for isoTOP-ABPP sample preparation. Samples were further processed as detailed in: isoTOP-ABPP streptavidin enrichment and isoTOP-ABPP trypsin TEV digestion with the following exception: after overnight incubation at 37° C. with trypsin, tryptic digests were separated from the beads with Micro Bio-Spin columns (Bio-Rad) by centrifugation (1,000×g, 1 min). Beads were rinsed once with water (200 μL) and combined with tryptic digests. […]
The MS2 spectra data were extracted and searched using RAW Convertor and ProLuCID algorithm as described in isoTOP-ABPP peptide and protein quantification. […] Ratios of heavy/light (DMSO/test compound) peaks were calculated using in-house CIMAGE software. […] The mean R values and standard deviation for multiple biological experiments were calculated from the average ratios from each replicate. […]

T1 sequence (O95881 27-172): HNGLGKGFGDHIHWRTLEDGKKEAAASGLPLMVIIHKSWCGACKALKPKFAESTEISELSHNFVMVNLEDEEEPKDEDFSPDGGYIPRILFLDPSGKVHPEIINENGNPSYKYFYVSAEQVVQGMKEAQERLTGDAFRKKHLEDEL

## O=C(c1ccc(N2CCOCC2)cc1)N1CCCC(N(Cc2ccccc2)C(=O)CCl)CC1 (stereo not shown) [BPK-29, N-benzyl-2-chloro-N-(1-(4-morpholinobenzoyl)azepan-4-yl)acetamide]
  BPK-29-competed BPK-29yne analysis: Yes (Competed defined as showing R value ≥ 2.5 at 20 μM of test compound)
